# Key:
# [1] = test system: leucocytes circulants normaux (majoritairement neutrophiles et lymphocytes) et immatures (myélocytes); test: Circulating blood cell counts in mice after 4 consecutive days of i.v. Muradimétide alone (Example 1); format: in vivo, souris; details: for Nbre de Leucocytes / Nbre de Lymphocytes / Nbre de Myélocytes / Nbre de Neutrophiles: Muradimétide 25 mg/kg i.v., 4 consecutive days
# Experimental: Le tableau 1 ci-dessous représente les numérations des leucocytes, neutrophiles, lymphocytes et myélocytes en fonction du temps après traitement par le Muradimétide seul administré à la dose de 25 mg/kg. Le traitement est effectué pendant 4 jours consécutifs par injection intraveineuse.
# Effet de 4 jours de traitement consécutifs des souris par voie veineuse avec le Muradimétide (25 mg/kg) sur les modifications du nombre de leucocytes circulants normaux (majoritairement neutrophiles et lymphocytes) et immatures (myélocytes).
# CSH = CSH mobilisation in cyclophosphamide-treated mice after oral AZT, MDM or both (Example 6, figure 13); format: in vivo, souris; details: cyclophosphamide 200 mg/kg s.c. day 0; oral MDM 25 mg/kg alone days 0, 1, 2, 3
# Experimental: La figure 13 représente une expérience similaire sur des souris normales qui ont préalablement reçu un traitement par une drogue cytotoxique : la cyclophosphamide.
# L'effet du traitement ci-dessus pour compenser l'effet cytotoxique des chimiothérapies a été étudié en traitant les souris par le cyclophosphamide.
# Les souris traitées par une simple injection sous-cutanée de cyclophosphamide (dose de 200 mg/kg) au jour 0 ont été ensuite divisées entre 4 groupes et ont reçu oralement, outre de l'eau physiologique (X), de l'AZT à 50 mg/kg (□), du MDM à 25 mg/kg (Δ) ou du mélange de ceux-ci (O). Le traitement oral a été effectué aux jours 0, 1, 2 et 3 et les numérations cellulaires ont été évaluées jusqu'à 14 jours après le commencement du traitement. Les résultats sont indiqués dans la figure 13. Là-encore, il apparaît évident qu'une très forte mobilisation a lieu surtout en présence du mélange d'AZT et de MDM.
# [2] = test system: neutrophiles, leucocytes et myélocytes; test: Blood cell counts in mice given i.v. AZT 40 mg/kg plus Muradimétide i.v. or p.o. (Example 2); format: in vivo, souris CDI mâles
# Experimental: Le traitement par l'AZT seul induit classiquement une diminution du nombre des leucocytes et des neutrophiles circulants. Cette diminution est suivie par une reconstitution intervenant environ 4 à 7 jours après le début du traitement. Quand le Muradimétide a été administré par voie générale ou par la voie orale après un traitement par 40 mg/kg d'AZT, il n'y a pas de baisse du nombre de cellules et au contraire il y a une multiplication par au moins 1,5 du nombre de leucocytes et un triplement de celui des neutrophiles et cela dès après 4 jours. Les résultats sont représentés dans le tableau 2 ci-dessous.
# Des souris CDI mâles (5 par groupe) ont été injectées avec de l'AZT à la dose de 40 mg par kg aux jours 0 à 3. Le Muradimétide est administré les mêmes jours à la dose de 10 mg par kg en intraveineux ou de 50 mg par kg per os. Les comptages cellulaires sont réalisés au jour 0 (avant le traitement), et aux jours 3 et 4. Tableau 2
# myélocytes circulants [3] = test: Circulating myelocytes 24 h after 4 daily oral administrations of AZT and/or Muradimétide (Example 4, Table 3); format: in vivo, souris; details: for Nbre de myélocytes circulants: 24 h after 4 daily administrations
# Experimental: Le tableau 3 ci-dessous et la figure 11 indiquent l'effet d'un traitement per os des souris avec du Muradimétide avant, en même temps ou après l'AZT administré à 50 mg par kg, sur le nombre de myélocytes circulants testés 24 heures après 4 administrations quotidiennes. Tableau 3
# Le nombre moyen de myélocytes circulant avant le traitement se situe entre 3 et 15 X 10^4 cellules par ml dans les 5 groupes.
# La « P-value » a été calculée par le test Mann Whitney U Rank.
# NS signifie que la différence n'est pas significative. Ce tableau confirme que l'augmentation des myélocytes circulants est d'environ 200 quand il y a effet conjoint de l'AZT et du Muradimétide. Les deux constituants de la combinaison ont été administrés per os soit simultanément soit à des temps séparés.
# myélocytes circulants [4] = test: Circulating myelocytes during two weeks of oral treatment, 4 days per week (Example 4, figure 11); format: in vivo, souris; details: p.o. days 0, 1, 2, 3 and 7, 8, 9, 10; MDM 25 mg/kg, AZT 50 mg/kg or both
# Experimental: La figure 11 représente l'effet d'un traitement per os de souris pendant deux semaines consécutives (4 jours par semaine) avec l'AZT, le Muradimétide ou le mélange des deux sur le nombre des myélocytes circulants.
# La figure 11 montre l'effet d'un traitement par le MDM à 25 mg/kg (X), de l'AZT à 50 mg/kg (O) et du mélange des deux (□) sur le comptage des myélocytes de souris traitées pendant 2 semaines aux jours 0, 1, 2, 3 de la première semaine et 7, 8, 9, 10 de la deuxième semaine. […] Si l'effet est surtout marqué au niveau de la première semaine, cela montre que le traitement nécessite un certain espace de temps entre les différents cycles de traitement et que des traitements répétés pourraient, le cas échéant, être utiles.
# [5] = AZT 40 mg/kg i.v. days 0-3 + Muradimétide i.v. 10mg/kg days 0-3, day 0 (before treatment)
# [6] = AZT 40 mg/kg i.v. days 0-3 + Muradimétide i.v. 10mg/kg days 0-3, day 3
# [7] = AZT 40 mg/kg i.v. days 0-3 + Muradimétide i.v. 10mg/kg days 0-3, day 4
# [8] = AZT 40 mg/kg i.v. days 0-3 + Muradimétide p.o 50 mg/Kg days 0-3, day 0 (before treatment)
# [9] = AZT 40 mg/kg i.v. days 0-3 + Muradimétide p.o 50 mg/Kg days 0-3, day 3
# [10] = AZT 40 mg/kg i.v. days 0-3 + Muradimétide p.o 50 mg/Kg days 0-3, day 4
# [11] = Muradimétide by general or oral route after AZT 40 mg/kg, after 4 days
smiles,measurement,setting,value
"COC(=O)CC[C@@H](NC(=O)[C@H](C)NC(=O)[C@@H](C)O[C@H]1[C@H](O)[C@@H](CO)OC(O)[C@@H]1NC(C)=O)C(=O)OC (stereo partly drawn) [Muradimétide, Nac-Mur-L-Ala-D-Glu-[OCH3]-OCH3]",Nbre de Leucocytes,[1]; day 0,50 ± 14° x 10^5/ml
same,Nbre de Lymphocytes,[1]; day 0,38±12 x 10^5/ml
same,Nbre de Myélocytes,[1]; day 0,7 ± 6 x 10^4/ml
same,Nbre de Neutrophiles,[1]; day 0,11±3 x 10^5/ml
same,Nbre de Leucocytes,[1]; day 2,52±12 x 10^5/ml
same,Nbre de Lymphocytes,[1]; day 2,41 ± 17 x 10^5/ml
same,Nbre de Myélocytes,[1]; day 2,8±8 x 10^4/ml
same,Nbre de Neutrophiles,[1]; day 2,10±3 x 10^5/ml
same,Nbre de Leucocytes,[1]; day 3,52 ± 17 x 10^5/ml
same,Nbre de Lymphocytes,[1]; day 3,35 ± 13 x 10^5/ml
same,Nbre de Myélocytes,[1]; day 3,40±5 x 10^4/ml
same,Nbre de Neutrophiles,[1]; day 3,13 ± 5 x 10^5/ml
same,Nbre de Leucocytes,[1]; day 4,52 ± 15 x 10^5/ml
same,Nbre de Lymphocytes,[1]; day 4,34 ± 8 x 10^5/ml
same,Nbre de Myélocytes,[1]; day 4,72 ± 27 x 10^4/ml
same,Nbre de Neutrophiles,[1]; day 4,12 ± 4 x 10^5/ml
same,Nbre de Leucocytes,[1]; day 7,50±13 x 10^5/ml
same,Nbre de Lymphocytes,[1]; day 7,38±10 x 10^5/ml
same,Nbre de Myélocytes,[1]; day 7,4 ± 4 x 10^4/ml
same,Nbre de Neutrophiles,[1]; day 7,12±4 x 10^5/ml
same,nombre de myélocytes circulants (result in words),"[1]; Muradimétide alone 25 mg/kg i.v., days 3 and 4",augmentation du nombre de myélocytes circulants qui est hautement significative
same,numération des neutrophiles circulants,CSH,effet similaire mais nettement moins marqué
same,pourcentage de myélocytes ou de promyélocytes (result in words),"[2]; AZT 40 mg/kg i.v. + Muradimétide, whatever the route of administration",augmentation spectaculaire
same,Leucocytes,[2]; [5],6.0 ± 3.4 x 10^6/ml
same,Myelocytes,[2]; [5],5 ± 7 x 10^4 /ml
same,Neutrophiles,[2]; [5],2.0 ± 1.3 x 10^6 /ml
same,Leucocytes,[2]; [6],5.9 ± 2.9 x 10^6/ml
same,Myelocytes,[2]; [6],145 ± 83 x 10^4 /ml
same,Neutrophiles,[2]; [6],1.5 ± 0.8 x 10^6 /ml
same,Leucocytes,[2]; [7],7.6 ± 1.6 x 10^6/ml
same,Myelocytes,[2]; [7],117 ± 46 x 10^4 /ml
same,Neutrophiles,[2]; [7],4.6 ±1.5 x 10^6 /ml
same,Leucocytes,[2]; [8],4.8 ± 0.4 x 10^6/ml
same,Myelocytes,[2]; [8],14 ± 13 x 10^4 /ml
same,Neutrophiles,[2]; [8],1.4 ± 0.5 x 10^6 /ml
same,Leucocytes,[2]; [9],6.1 ± 1.4 x 10^6/ml
same,Myelocytes,[2]; [9],123 ± 55 x 10^4 /ml
same,Neutrophiles,[2]; [9],1.6 ± 0.5 x 10^6 /ml
same,Leucocytes,[2]; [10],8.1 ± 2.9 x 10^6/ml
same,Myelocytes,[2]; [10],138 ± 59 x 10^4 /ml
same,Neutrophiles,[2]; [10],4.3 ± 2.47 x 10^6 /ml
same,multiplication du nombre de leucocytes,[2]; [11],"≥ 1,5"
same,nombre de neutrophiles (fold change),[2]; [11],triplement
same,Nbre de myélocytes circulants,myélocytes circulants [3]; AZT 50mg/Kg p.o. at 0 h + Muradimetide 25mg/Kg p.o. at 0 h,215 ± 51 x 10^4/ml
same,Nbre de myélocytes circulants,myélocytes circulants [3]; AZT 50mg/Kg p.o. at 0 h + Muradimetide 25mg/Kg p.o. at -4 h,194 ± 50 x 10^4/ml
same,Nbre de myélocytes circulants,myélocytes circulants [3]; AZT 50mg/Kg p.o. at -4 h + Muradimetide 25mg/Kg p.o. at 0 h,187 ± 42 x 10^4/ml
same,Nbre de myélocytes circulants,myélocytes circulants [3]; Muradimetide 25mg/Kg p.o. alone at 0 h,17 ± 15 x 10^4/ml
same,augmentation des myélocytes circulants,"myélocytes circulants [3]; joint effect of AZT 50 mg/kg and Muradimétide 25 mg/kg p.o., simultaneously or at separate times",~200
same,effet sur la mobilisation des CHS (comptage des myélocytes),myélocytes circulants [4],effet significatif
